pIC50: −log10 of the molar value. Strand notation (5' to 3'): a small letter for the sugar, then the base; units joined by * are phosphorothioate-linked, units joined directly phosphodiester-linked; [ ] holds rarer units or linkages, { } end groups; capitals alone tell only the bases. k = constrained ethyl (cEt); [5mC] = 5-methylcytosine; d = 2'-deoxy (DNA)
Legend:
[1] = Tolerability in Balb/c mice, plasma chemistry markers (Example 10); assay type: in vivo; conditions: male Balb/c mice, 50 mg/kg subcutaneously twice a week for four weeks, day 26
Protocol: (§1) Balb/c mice were treated with modified oligonucleotides selected from studies described above and evaluated for changes in the levels of various plasma chemistry markers.
(§2) Groups of male Balb/c mice at 4-6 weeks of age (obtained from Taconic) were injected subcutaneously twice a week for four weeks (for a total of 8 treatments) with 50 mg/kg of modified oligonucleotides. One group of male Balb/c mice was injected with PBS. Mice were euthanized on day 26 post start of treatment (24 hours following the final administration).

[2] = system: Yap1 mRNA; assay: Dose-dependent inhibition of human Yap1 in A-431 cells (Example 6, 5,000 cells per well, RTS4814); assay type: cell-based; conditions: for % UTC 148 nM / % UTC 444 nM / % UTC 1333 nM / % UTC 4000 nM: approximately 48 hours; for Yap1 mRNA, % UTC: 48 hours
How it was run: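 A-431 cells (5,000/well) took up oligonucleotides by free uptake at various doses for about 48 h. Yap1 mRNA was measured by RT-PCR (RTS4814), normalised to RIBOGREEN total RNA and expressed as % untreated control; IC50 by linear regression on a log/linear plot.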

[3] = Tolerability in Balb/c mice, body and organ weights (Example 10); assay type: in vivo; conditions: 50 mg/kg subcutaneously twice a week for four weeks, end of study
Protocol: as §2
(§3) Body weights of Balb/c mice were measured at the end of the study, and the average body weight for each group is presented in the table below. Modified oligonucleotides that caused any changes in organ weights outside the expected range for modified oligonucleotides were excluded from further studies.

[4] = Tolerability in Balb/c mice, plasma chemistry markers (Example 11); assay type: in vivo; conditions: 50 mg/kg subcutaneously twice a week for four weeks
Protocol: as §1, §2

[5] = Tolerability in Balb/c mice, body and organ weights (Example 11); assay type: in vivo; conditions: 50 mg/kg subcutaneously twice a week for four weeks, end of study
Protocol: as §2, §3

[6] = Table 54, A-431 cells, Yap1 mRNA, linear regression on a log/linear plot
[7] = Table 54, A-431 cells, free uptake, 148 nM, RTS4814
[8] = Table 54, A-431 cells, free uptake, 444 nM, RTS4814
[9] = Table 54, A-431 cells, free uptake, 1333 nM, RTS4814
[10] = Table 54, A-431 cells, free uptake, 4000 nM, RTS4814
[11] = Table 55, 148 nM, free uptake, A-431 cells 5,000 cells per well, RTS4814
[12] = Table 55, 444 nM, free uptake, A-431 cells 5,000 cells per well, RTS4814
[13] = Table 55, 1333 nM, free uptake, A-431 cells 5,000 cells per well, RTS4814
[14] = Table 55, 4000 nM, free uptake, A-431 cells 5,000 cells per well, RTS4814
[15] = Table 55, A-431 cells 5,000 cells per well, free uptake, RTS4814
[16] = Table 53, A-431 cells, Yap1 mRNA, linear regression on a log/linear plot
[17] = Table 53, A-431 cells, free uptake, 148 nM, RTS4814
[18] = Table 53, A-431 cells, free uptake, 444 nM, RTS4814
[19] = Table 53, A-431 cells, free uptake, 1333 nM, RTS4814
[20] = Table 53, A-431 cells, free uptake, 4000 nM, RTS4814

| Substance | ALT (U/L) [1] | AST (U/L) [1] | TBIL [1] | Kidney weight [3] | Liver weight [3] | Spleen weight [3] | body weight [3] | ALT [4] | AST [4] | BUN [4] | TBIL [4] | Kidney weight [5] | Liver weight [5] | Spleen weight [5] | body weight [5] | further results |
| --- | --- | --- | --- | --- | --- | --- | --- | --- | --- | --- | --- | --- | --- | --- | --- | --- |
| 715582 (kG*kT*k[5mC]*dA*dA*dG*d[5mC]*d[5mC]*dT*dG*dT*d[5mC]*dT*kG*kG*kA; antisense) [compound 715582] | 2460 U/L | 2320 U/L | 2.09 mg/dL | 0.38 g | 1.46 g | 0.16 g | 22 g | – | – | – | – | – | – | – | – | pIC50 [2, 6]: < 5.40; % UTC 148 nM [2, 7]: 98 % UTC; % UTC 444 nM [2, 8]: 63 % UTC; % UTC 1333 nM [2, 9]: 93 % UTC; % UTC 4000 nM [2, 10]: 70 % UTC |
| 716455 (antisense kG*kT*kT*dA*dT*dG*dT*dT*dT*dG*dG*dG*dT*kG*kT*kG) [compound 716455] | – | – | – | – | – | – | – | 1089 U/L | 1193 U/L | 22 mg/dL | 0.25 mg/dL | 0.32 g | 2.66 g | 0.14 g | 21 g | Yap1 mRNA, % UTC [2, 11]: 95 % UTC; Yap1 mRNA, % UTC [2, 12]: 70 % UTC; Yap1 mRNA, % UTC [2, 13]: 49 % UTC; Yap1 mRNA, % UTC [2, 14]: 25 % UTC; pIC50 [2, 15]: 5.92 |
| 715480 (kG*kG*kA*dA*dA*d[5mC]*d[5mC]*dA*dT*dT*dA*dT*dT*kA*k[5mC]*kT; antisense) [compound 715480] | 791 U/L | 439 U/L | 0.15 mg/dL | 0.34 g | 1.64 g | 0.12 g | 22 g | – | – | – | – | – | – | – | – | pIC50 [2, 16]: < 5.40; % UTC 148 nM [2, 17]: 91 % UTC; % UTC 444 nM [2, 18]: 79 % UTC; % UTC 1333 nM [2, 19]: 67 % UTC; % UTC 4000 nM [2, 20]: 59 % UTC |
| 715609 (kT*kG*kT*dG*dT*dA*dG*dG*d[5mC]*dT*dG*dA*d[5mC]*kT*kT*kA; antisense) [compound 715609] | 1120 U/L | 2941 U/L | 0.67 mg/dL | 0.33 g | 2.64 g | 0.10 g | 21 g | – | – | – | – | – | – | – | – | – |
| 715558 (k[5mC]*kA*kG*dG*dA*dA*dG*dT*dT*dA*dT*dT*d[5mC]*kA*kG*k[5mC]; antisense) [compound 715558] | 65 U/L | 91 U/L | 0.16 mg/dL | 0.38 g | 1.33 g | 0.12 g | 22 g | – | – | – | – | – | – | – | – | pIC50 [2, 6]: < 5.40; % UTC 148 nM [2, 7]: 94 % UTC; % UTC 444 nM [2, 8]: 112 % UTC; % UTC 1333 nM [2, 9]: 80 % UTC; % UTC 4000 nM [2, 10]: 66 % UTC |
| 716481 (antisense kT*k[5mC]*kA*dG*d[5mC]*dA*dT*dA*dG*dA*dA*dG*dT*kA*kG*kG) [compound 716481] | – | – | – | – | – | – | – | 1935 U/L | 2248 U/L | 21 mg/dL | 0.46 mg/dL | 0.36 g | 1.99 g | 0.13 g | 22 g | pIC50 [2, 6]: 5.70; % UTC 148 nM [2, 7]: 89 % UTC; % UTC 444 nM [2, 8]: 90 % UTC; % UTC 1333 nM [2, 9]: 58 % UTC; % UTC 4000 nM [2, 10]: 32 % UTC |
| 715484 (kT*kA*k[5mC]*dT*d[5mC]*dT*dT*dT*dG*dG*dA*dA*dA*k[5mC]*k[5mC]*kA; antisense) [compound 715484] | 116 U/L | 110 U/L | 0.15 mg/dL | 0.37 g | 1.47 g | 0.13 g | 22 g | – | – | – | – | – | – | – | – | – |
| 715473 (kT*k[5mC]*kT*dT*dT*dA*dT*d[5mC]*dT*dA*dG*d[5mC]*dT*kT*kG*kG; antisense) [compound 715473] | – | – | – | – | – | – | – | 3046 U/L | 2861 U/L | 20 mg/dL | 2.77 mg/dL | 0.31 g | 1.46 g | 0.09 g | 20 g | pIC50 [2, 16]: 5.89; % UTC 148 nM [2, 17]: 89 % UTC; % UTC 444 nM [2, 18]: 67 % UTC; % UTC 1333 nM [2, 19]: 50 % UTC; % UTC 4000 nM [2, 20]: 30 % UTC |
| 715593 (kA*kT*kT*dT*d[5mC]*dT*dT*dT*dG*dG*d[5mC]*dA*dG*kA*kG*kA; antisense) [compound 715593] | 628 U/L | 610 U/L | 0.11 mg/dL | 0.30 g | 1.12 g | 0.13 g | 19 g | – | – | – | – | – | – | – | – | – |
| 715415 (k[5mC]*kG*kA*dA*d[5mC]*dA*dT*dG*d[5mC]*dT*dG*dT*dG*kG*kA*kG; antisense) [compound 715415] | – | – | – | – | – | – | – | 1075 U/L | 701 U/L | 17 mg/dL | 0.14 mg/dL | 0.40 g | 1.79 g | 0.17 g | 25 g | pIC50 [2, 16]: 5.74; % UTC 148 nM [2, 17]: 84 % UTC; % UTC 444 nM [2, 18]: 59 % UTC; % UTC 1333 nM [2, 19]: 55 % UTC; % UTC 4000 nM [2, 20]: 42 % UTC |
| 716480 (antisense kG*k[5mC]*kA*dA*dG*dT*d[5mC]*dT*dT*dG*dT*dA*dA*kG*kT*kA) [compound 716480] | – | – | – | – | – | – | – | 2156 U/L | 844 U/L | 19 mg/dL | 0.14 mg/dL | 0.34 g | 2.58 g | 0.10 g | 21 g | Yap1 mRNA, % UTC [2, 11]: 80 % UTC; Yap1 mRNA, % UTC [2, 12]: 56 % UTC; Yap1 mRNA, % UTC [2, 13]: 38 % UTC; Yap1 mRNA, % UTC [2, 14]: 39 % UTC; pIC50 [2, 15]: 6.00 |
| 715557 (kG*kG*kA*dA*dG*dT*dT*dA*dT*dT*d[5mC]*dA*dG*k[5mC]*kA*kG; antisense) [compound 715557] | 1755 U/L | 2377 U/L | 0.28 mg/dL | 0.31 g | 1.96 g | 0.12 g | 21 g | – | – | – | – | – | – | – | – | – |
| 716513 (antisense kA*kA*kT*d[5mC]*dT*dT*dA*dA*dT*d[5mC]*dT*dG*dT*kG*kG*k[5mC]) [compound 716513] | – | – | – | – | – | – | – | 325 U/L | 229 U/L | 17 mg/dL | 0.14 mg/dL | 0.41 g | 1.59 g | 0.18 g | 25 g | Yap1 mRNA, % UTC [2, 11]: 82 % UTC; Yap1 mRNA, % UTC [2, 12]: 73 % UTC; Yap1 mRNA, % UTC [2, 13]: 39 % UTC; Yap1 mRNA, % UTC [2, 14]: 39 % UTC; pIC50 [2, 15]: 5.85 |
| 716424 (antisense kG*k[5mC]*kA*dA*dT*dG*dG*dA*d[5mC]*dA*dA*dG*dG*kA*kA*kG) [compound 716424] | – | – | – | – | – | – | – | 2077 U/L | 1422 U/L | 20 mg/dL | 0.22 mg/dL | 0.36 g | 2.08 g | 0.15 g | 23 g | pIC50 [2, 6]: 5.70; % UTC 148 nM [2, 7]: 76 % UTC; % UTC 444 nM [2, 8]: 69 % UTC; % UTC 1333 nM [2, 9]: 51 % UTC; % UTC 4000 nM [2, 10]: 44 % UTC |

From patent US11214803B2, “Modulators of YAP1 expression” (Ionis Pharmaceuticals, Inc., priority 2019, dated 2022)
